According to the supplement of paper PMC4628005:

Assays:
Conditions in all cases: drug exposure time: 96 h
Serdemetan = compound: c1ccc2c(CCNc3ccc(Nc4ccncc4)cc3)c[nH]c2c1 [Serdemetan]
Experimental: (§1)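 Breast cancer cell lines were grown in RPMI 1640 with 10% FBS on collagen I-coated 96-well plates and treated for 96 h (from 24 h after seeding) with 12 dilutions per drug, in triplicate. Growth was read by sulforhodamine B total-protein staining (absorbance 570 nm) relative to diluent control, and IC50 was calculated. The top dose was 1e-5 M for most drugs; Bortezomib went to 2e-5 M and Sirolimus and 17-AAG to 2e-6 M[…].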

Docetaxel = compound: CC(=O)O[C@@]12CO[C@@H]1C[C@H](O)[C@@]1(C)C(=O)[C@H](O)C3=C(C)[C@@H](OC(=O)[C@H](O)[C@@H](NC(=O)OC(C)(C)C)c4ccccc4)C[C@@](O)([C@@H](OC(=O)c4ccccc4)[C@H]21)C3(C)C [Docetaxel]
Experimental: as §1

Nutlin-3 = compound: COc1ccc(C2=N[C@@H](c3ccc(Cl)cc3)[C@@H](c3ccc(Cl)cc3)N2C(=O)N2CCNC(=O)C2)c(OC(C)C)c1 [Nutlin-3]
Experimental: as §1

Sunitinib = compound: CCN(CC)CCNC(=O)c1c(C)[nH]c(/C=C2\C(=O)Nc3ccc(F)cc32)c1C [Sunitinib]
Experimental: as §1

Quisinostat = compound: Cn1cc(CNCC2CCN(c3ncc(C(=O)NO)cn3)CC2)c2ccccc21 [Quisinostat]
Experimental: as §1

Paclitaxel = compound: CC(=O)O[C@H]1C(=O)[C@@]2(C)[C@H]([C@H](OC(=O)c3ccccc3)[C@]3(O)C[C@H](OC(=O)[C@H](O)[C@@H](NC(=O)c4ccccc4)c4ccccc4)C(C)=C1C3(C)C)[C@]1(OC(C)=O)CO[C@@H]1C[C@@H]2O [Paclitaxel]
Experimental: as §1

Brivanib = compound: Cc1cc2c(F)c(Oc3ncnn4cc(OC[C@@H](C)O)c(C)c34)ccc2[nH]1 [Brivanib]
Experimental: as §1

Vorinostat = compound: O=C(CCCCCCC(=O)Nc1ccccc1)NO [Vorinostat]
Experimental: as §1

Cisplatin = compound: N.N.[Cl][Pt][Cl] [Cisplatin]
Experimental: as §1

Tamoxifen = compound: CC/C(=C(\c1ccccc1)c1ccc(OCCN(C)C)cc1)c1ccccc1 [Tamoxifen]
Experimental: as §1

Doxorubicin = compound: COc1cccc2c1C(=O)c1c(O)c3c(c(O)c1C2=O)C[C@@](O)(C(=O)CO)C[C@@H]3O[C@H]1C[C@H](N)[C@H](O)[C@H](C)O1 [Doxorubicin]
Experimental: as §1

5-Fluorouracil = compound: O=c1[nH]cc(F)c(=O)[nH]1 [5-Fluorouracil]
Experimental: as §1

Dasatinib = compound: Cc1nc(Nc2ncc(C(=O)Nc3c(C)cccc3Cl)s2)cc(N2CCN(CCO)CC2)n1 [Dasatinib]
Experimental: as §1

Tipifarnib = compound: Cn1cncc1[C@@](N)(c1ccc(Cl)cc1)c1ccc2c(c1)c(-c1cccc(Cl)c1)cc(=O)n2C [Tipifarnib]
Experimental: as §1

Gefitinib = compound: COc1cc2ncnc(Nc3ccc(F)c(Cl)c3)c2cc1OCCCN1CCOCC1 [Gefitinib]
Experimental: as §1

Azacitidine = compound: Nc1ncn([C@@H]2O[C@H](CO)[C@@H](O)[C@H]2O)c(=O)n1 [Azacitidine]
Experimental: as §1

Erlotinib = compound: C#Cc1cccc(Nc2ncnc3cc(OCCOC)c(OCCOC)cc23)c1 [Erlotinib]
Experimental: as §1

Lapatinib = compound: CS(=O)(=O)CCNCc1ccc(-c2ccc3ncnc(Nc4ccc(OCc5cccc(F)c5)c(Cl)c4)c3c2)o1 [Lapatinib]
Experimental: as §1

Belinostat = compound: O=C(/C=C/c1cccc(S(=O)(=O)Nc2ccccc2)c1)NO [Belinostat]
Experimental: as §1

Sorafenib = compound: CNC(=O)c1cc(Oc2ccc(NC(=O)Nc3ccc(Cl)c(C(F)(F)F)c3)cc2)ccn1 [Sorafenib]
Experimental: as §1

Methotrexate = compound: CN(Cc1cnc2nc(N)nc(N)c2n1)c1ccc(C(=O)N[C@@H](CCC(=O)O)C(=O)O)cc1 [Methotrexate]
Experimental: as §1

MI-219 = compound: CC(C)(C)C[C@H]1N[C@@H](C(=O)NCC[C@H](O)CO)[C@H](c2cccc(Cl)c2)[C@@]12C(=O)Nc1cc(Cl)c(F)cc12 [MI-219]
Experimental: as §1

Decitabine = compound: Nc1ncn([C@H]2C[C@H](O)[C@@H](CO)O2)c(=O)n1 [Decitabine]
Experimental: as §1

Vandetanib = compound: COc1cc2/c(=N/c3ccc(Br)cc3F)nc[nH]c2cc1OCC1CCN(C)CC1 [Vandetanib]
Experimental: as §1

Panobinostat = compound: Cc1[nH]c2ccccc2c1CCNCc1ccc(/C=C/C(=O)NO)cc1 [Panobinostat]
Experimental: as §1

ARQ197 = compound: O=C1NC(=O)[C@@H](c2cn3c4c(cccc24)CCC3)[C@@H]1c1c[nH]c2ccccc12 [ARQ197]
Experimental: as §1

Mitoxantrone = compound: O=C1c2c(O)ccc(O)c2C(=O)c2c(NCCNCCO)ccc(NCCNCCO)c21 [Mitoxantrone]
Experimental: as §1

Sirolimus = compound: CO[C@H]1C[C@@H]2CC[C@@H](C)[C@@](O)(O2)C(=O)C(=O)N2CCCC[C@H]2C(=O)O[C@H]([C@H](C)C[C@@H]2CC[C@@H](O)[C@H](OC)C2)CC(=O)[C@H](C)/C=C(\C)[C@@H](O)[C@@H](OC)C(=O)[C@H](C)C[C@H](C)/C=C/C=C/C=C/1C [Sirolimus]
Experimental: (§2)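 Same SRB 96 h IC50 screen on breast cancer cell lines (RPMI 1640 + 10% FBS, collagen I-coated 96-well plates, triplicates, 12 dilutions), for drugs with a different dose range: Bortezomib up to 2e-5 M; Sirolimus and 17-AAG up to 2e-6 M. Sirolimus values at the 2e-6 M top dose are censored.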

Bortezomib = compound: CC(C)C[C@H](NC(=O)[C@H](Cc1ccccc1)NC(=O)c1cnccn1)B(O)O [Bortezomib]
Experimental: as §2

17-AAG = compound: C=CCNC1=C2C[C@@H](C)C[C@H](OC)[C@H](O)[C@@H](C)/C=C(\C)[C@H](OC(N)=O)[C@@H](OC)/C=C\C=C(/C)C(=O)NC(=CC1=O)C2=O [17-AAG]
Experimental: as §2

HCC 1806
IC50 (SRB growth assay) (Serdemetan): 826 nM
IC50 (SRB growth assay) (Docetaxel): 0.597 nM
IC50 (SRB growth assay) (Nutlin-3): > 10000 nM
IC50 (SRB growth assay) (Sunitinib): 4990 nM
IC50 (SRB growth assay) (Quisinostat): 8.95 nM
IC50 (SRB growth assay) (Paclitaxel): 1.97 nM
IC50 (SRB growth assay) (Brivanib): > 10000 nM
IC50 (SRB growth assay) (Vorinostat): 632 nM
IC50 (SRB growth assay) (Cisplatin): > 10000 nM
IC50 (SRB growth assay) (Tamoxifen): 5990 nM
IC50 (SRB growth assay) (Doxorubicin): 20.8 nM
IC50 (SRB growth assay) (5-Fluorouracil): 5080 nM
IC50 (SRB growth assay) (Dasatinib): 178 nM
IC50 (SRB growth assay) (Tipifarnib): 263 nM
IC50 (SRB growth assay) (Gefitinib): 513 nM
IC50 (SRB growth assay) (Azacitidine): > 10000 nM
IC50 (SRB growth assay) (Erlotinib): 327 nM
IC50 (SRB growth assay) (Lapatinib): 589 nM
IC50 (SRB growth assay) (Belinostat): 216 nM
IC50 (SRB growth assay) (Sorafenib): 5250 nM
IC50 (SRB growth assay) (Methotrexate): 2.99 nM
IC50 (SRB growth assay) (MI-219): > 10000 nM
IC50 (SRB growth assay) (Decitabine): 1190 nM
IC50 (SRB growth assay) (Vandetanib): 580 nM
IC50 (SRB growth assay) (Panobinostat): 15.8 nM
IC50 (SRB growth assay) (ARQ197): 501 nM
IC50 (SRB growth assay) (Mitoxantrone): 20.1 nM
IC50 (SRB growth assay) (Sirolimus): > 2000 nM
IC50 (SRB growth assay) (Bortezomib): 5.96 nM
IC50 (SRB growth assay) (17-AAG): 53.6 nM

EVSA-T
IC50 (SRB growth assay) (Serdemetan): 1130 nM
IC50 (SRB growth assay) (Docetaxel): 0.4 nM
IC50 (SRB growth assay) (Nutlin-3): > 10000 nM
IC50 (SRB growth assay) (Sunitinib): 2200 nM
IC50 (SRB growth assay) (Quisinostat): 1.36 nM
IC50 (SRB growth assay) (Paclitaxel): 1.09 nM
IC50 (SRB growth assay) (Brivanib): > 10000 nM
IC50 (SRB growth assay) (Vorinostat): 380 nM
IC50 (SRB growth assay) (Cisplatin): > 10000 nM
IC50 (SRB growth assay) (Tamoxifen): 4960 nM
IC50 (SRB growth assay) (Doxorubicin): 8.01 nM
IC50 (SRB growth assay) (5-Fluorouracil): 1740 nM
IC50 (SRB growth assay) (Dasatinib): > 10000 nM
IC50 (SRB growth assay) (Tipifarnib): 18.5 nM
IC50 (SRB growth assay) (Gefitinib): 7520 nM
IC50 (SRB growth assay) (Azacitidine): 3840 nM
IC50 (SRB growth assay) (Erlotinib): > 10000 nM
IC50 (SRB growth assay) (Lapatinib): 2530 nM
IC50 (SRB growth assay) (Belinostat): 85.1 nM
IC50 (SRB growth assay) (Sorafenib): 2240 nM
IC50 (SRB growth assay) (Methotrexate): 6030 nM
IC50 (SRB growth assay) (MI-219): > 10000 nM
IC50 (SRB growth assay) (Decitabine): 2250 nM
IC50 (SRB growth assay) (Vandetanib): 2020 nM
IC50 (SRB growth assay) (Panobinostat): 3.19 nM
IC50 (SRB growth assay) (ARQ197): 218 nM
IC50 (SRB growth assay) (Mitoxantrone): 2.68 nM
IC50 (SRB growth assay) (Sirolimus): 0.0536 nM
IC50 (SRB growth assay) (Bortezomib): 2.74 nM
IC50 (SRB growth assay) (17-AAG): 5.76 nM

CAMA 1
IC50 (SRB growth assay) (Serdemetan): 1520 nM
IC50 (SRB growth assay) (Docetaxel): 0.662 nM
IC50 (SRB growth assay) (Nutlin-3): > 10000 nM
IC50 (SRB growth assay) (Sunitinib): 5680 nM
IC50 (SRB growth assay) (Quisinostat): 2.87 nM
IC50 (SRB growth assay) (Paclitaxel): 1.95 nM
IC50 (SRB growth assay) (Brivanib): > 10000 nM
IC50 (SRB growth assay) (Vorinostat): 1020 nM
IC50 (SRB growth assay) (Cisplatin): > 10000 nM
IC50 (SRB growth assay) (Tamoxifen): 7980 nM
IC50 (SRB growth assay) (Doxorubicin): 21.8 nM
IC50 (SRB growth assay) (5-Fluorouracil): 1560 nM
IC50 (SRB growth assay) (Dasatinib): > 10000 nM
IC50 (SRB growth assay) (Tipifarnib): 3040 nM
IC50 (SRB growth assay) (Gefitinib): > 10000 nM
IC50 (SRB growth assay) (Azacitidine): 5560 nM
IC50 (SRB growth assay) (Erlotinib): > 10000 nM
IC50 (SRB growth assay) (Lapatinib): 4200 nM
IC50 (SRB growth assay) (Belinostat): 339 nM
IC50 (SRB growth assay) (Sorafenib): 5240 nM
IC50 (SRB growth assay) (Methotrexate): 8300 nM
IC50 (SRB growth assay) (MI-219): > 10000 nM
IC50 (SRB growth assay) (Decitabine): 1040 nM
IC50 (SRB growth assay) (Vandetanib): > 10000 nM
IC50 (SRB growth assay) (Panobinostat): 12.6 nM
IC50 (SRB growth assay) (ARQ197): 424 nM
IC50 (SRB growth assay) (Mitoxantrone): 6.16 nM
IC50 (SRB growth assay) (Sirolimus): 0.106 nM
IC50 (SRB growth assay) (Bortezomib): 6.12 nM
IC50 (SRB growth assay) (17-AAG): 22.7 nM
